This note sets out measurements from patent US20210330611A1, “THERAPY FOR NEUROLOGICAL DISEASES/DISORDERS” (priority 2020, published 2021).

Counter-ions that a name gives are not always drawn. Like-named read-outs stand apart in the source and are kept apart here.

Data set [1] concerns primary rat microglia. The settings on record: rat.
Data set [2] deals with LPS-induced microglia activation. The data set is described as follows: Image-based assay of LPS-induced microglia activation (HTS and dose response). The note with it: Rattus norvegicus, Microglia; for inhibition at 10 µM: read-out: LPS % inhibition. It is filed as cell-based, rat.
Data set [3] deals with fibrin-induced microglia activation. Briefly: Image-based assay of fibrin-induced microglia activation (HTS and dose response). It counts as cell-based, rat. The settings on record: for IC50 / inhibition at 10 µM: Rattus norvegicus, Microglia; for inhibition at 10 µM: read-out: Fibrin % inhibition.
Data set [4] concerns primary rat microglia. The settings on record: rat. The source holds these as a separate data set.
In data set [5] the test system is fibrin- and LPS-induced microglia activation. Briefly: cells. It is filed as cell-based, rat. The note with it: for inhibition at 10 µM: Rattus norvegicus.
Data set [6] in a line: in vitro. The note with it: rat.
A short description of data set [7]: in vitro. The settings on record: rat, Cell Toxicity IC50 (uM) [cFib assay].
[8] abbreviates: 48 h, Table 1, dose response 0.001-20 μM, triplicates, primary rat microglia, 48 h, read-out: LPS IC50.
Where [9] appears, read: 48 h, primary microglia HTS, LPS stimulation, increased cell size (>800 μm^2) as marker of activation.
Where [10] appears, read: LPS-induced microglia activation, dose response, read-out: LPS IC50 (uM) (Suppl. Table 7).
Where [11] appears, read: dose response, LPS-induced microglia activation, read-out: LPS IC50.
The mark [12] stands for this setting: 48 h, Table 1, dose response 0.001-20 μM, triplicates, primary rat microglia, 48 h, read-out: Fibrin IC50.
[13] abbreviates: dose response, fibrin-induced microglia activation, read-out: Fibrin IC50.
[14] abbreviates: fibrin-induced microglia activation, dose response, read-out: Fibrin IC50 (uM) (Suppl. Table 7).
Setting [15] is: primary microglia HTS, fibrin stimulation, increased cell size (>800 μm^2) as marker of activation.
Setting [16] is: HTS of 1907 compounds, quadrant by fibrin and LPS inhibition.
Where [17] appears, read: Microglia, HTS hit classification, read-out: Hit.
The mark [18] stands for this setting: hit classification in microglia HTS, read-out: Cherry-picked Hit (Suppl. Table 7).
The mark [19] stands for this setting: quadrant by fibrin and LPS inhibition in HTS of 1907 compounds.
[20] abbreviates: read-out: LPS IC50 (uM) (Suppl. Table 7).
[21] abbreviates: read-out: Fibrin IC50 (uM) (Suppl. Table 7).
The mark [22] stands for this setting: Microglia, read-out: Cherry-picked Hit (Suppl. Table 7).
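Throughout, for Fibrin % cell toxicity: share of dead cells sized under 150 µm2 at 10 µM in fibrin-stimulated microglia HTS.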

Consider `CN1CCN(CCCN2c3ccccc3Sc3ccc(C(F)(F)F)cc32)CC1` [Trifluoperazine dihydrochloride, reference compound], for which, in data set [1], the “Fibrin % cell toxicity” value is reported as 2%. For the same compound, the IC50 in data set [2] (setting [8]) amounted to 6 µM; in data set [2] (setting [10]), 6 µM; in data set [2] (setting [11]), 6 µM; in data set [3] (setting [12]), 12 µM; in data set [3] (setting [13]), 12 µM; in data set [3] (setting [14]), 12 µM. In addition, the IC50 in data set [6] was 12 µM; in data set [7] (cFib assay), above 20 µM. The inhibition at 10 µM was 26% in data set [2] (setting [9]), 69% in data set [3] (setting [15]), above 50% in data set [5] (setting [17]) and above 50% in data set [5] (setting [18]). In addition, the “LPS % cell toxicity” value in data set [4] is reported as 0%. Also, the “Quadrant (FIG. 5b)” value is given as “Q3” in data set [5] (setting [16]); “Q3” in data set [5] (Table 1, screen at 10 μM); “Q3” in data set [5] (setting [19]).
For the compound `COc1ccc(O)cc1` [Mequinol, reference compound], the “Fibrin % cell toxicity” value in data set [1] is 2%. Also, the inhibition at 10 µM is 76% in data set [2] (48 h); 98% in data set [3]; above 50% in data set [5] (setting [22]); above 50% in data set [5] (Microglia, read-out: Hit). For the same compound, the IC50 was above 20 µM in data set [2] (48 h, read-out: LPS IC50); above 20 µM in data set [2] (read-out: LPS IC50 (uM)); above 20 µM in data set [2] (setting [20]); above 20 µM in data set [3] (48 h, read-out: Fibrin IC50); above 20 µM in data set [3] (read-out: Fibrin IC50 (uM)); above 20 µM in data set [3] (setting [21]). Besides, the IC50 in data set [6] and in data set [7] was above 20 µM each time. Further, the “LPS % cell toxicity” value in data set [4] was determined as 1%. In data set [5], the “Quadrant (FIG. 5b)” value is “Q2”.
As to `CC(C)(C)NC(=O)[C@@H]1C[C@@H]2CCCC[C@@H]2CN1C[C@@H](O)[C@H](Cc1ccccc1)NC(=O)[C@H](CC(N)=O)NC(=O)c1ccc2ccccc2n1` [Saquinavir, reference compound], in data set [1], the “Fibrin % cell toxicity” value came out at 1%. The IC50 in data set [2] (setting [8]), in data set [2] (setting [10]), in data set [2] (setting [11]), in data set [3] (setting [12]), in data set [3] (setting [13]) and in data set [3] (setting [14]) was above 20 µM in each case. In addition, the IC50 in data set [6] and in data set [7] (cFib assay) was above 20 µM throughout. Moreover, the inhibition at 10 µM in data set [2] (setting [9]) is 56%; in data set [3] (setting [15]) it was 51%; in data set [5] (setting [17]) it was above 50%; in data set [5] (setting [18]), above 50%. The “LPS % cell toxicity” value in data set [4] worked out at 1%. Also, the “Quadrant (FIG. 5b)” value in data set [5] (setting [16]) is on record as “Q2”; in data set [5] (Table 1, screen at 10 μM), “Q2”; in data set [5] (setting [19]), “Q2”.
With `Clc1ccc(COC(Cn2ccnc2)c2ccc(Cl)cc2Cl)c(Cl)c1` (stereo not shown) [Miconazole nitrate, reference compound], the “Fibrin % cell toxicity” value in data set [1] is given as 1%. The inhibition at 10 µM in data set [2] (48 h) was 23%; in data set [3] it was 53%; in data set [5] (setting [22]) it was above 50%; in data set [5] (Microglia, read-out: Hit), above 50%. Further, in data set [4], the “LPS % cell toxicity” value is reported as 0%. In addition, the “Quadrant (FIG. 5b)” value in data set [5] is on record as “Q3”. The IC50 in data set [6] and in data set [7] was above 20 µM each time.
With `CNCCC=C1c2ccccc2CCc2ccccc21` [Nortriptyline hydrochloride, reference compound], the “Fibrin % cell toxicity” value in data set [1] is recorded as 2%. Further, the inhibition at 10 µM in data set [2] (48 h) was 114%; in data set [3] it was 98%; in data set [5] (setting [22]), above 50%; in data set [5] (Microglia, read-out: Hit) it was above 50%. In addition, the IC50 in data set [2] (48 h, read-out: LPS IC50) was 3 µM; in data set [2] (read-out: LPS IC50 (uM)), 3 µM; in data set [2] (setting [20]) it was 3 µM; in data set [3] (48 h, read-out: Fibrin IC50), 13 µM; in data set [3] (read-out: Fibrin IC50 (uM)) it was 13 µM; in data set [3] (setting [21]), 13 µM. Also, the IC50 in data set [6] was 10 µM; in data set [7], 20 µM. The “LPS % cell toxicity” value in data set [4] was 81%. For the same compound, in data set [5], the “Quadrant (FIG. 5b)” value is reported as “Q2”.
In the case of `CC(=O)OCC(=O)[C@@]1(O)[C@H](OC(C)=O)C[C@H]2[C@@H]3CCC4=CC(=O)C=C[C@]4(C)[C@@]3(F)[C@@H](O)C[C@@]21C` [Triamcinolone diacetate, reference compound], in data set [1], the “Fibrin % cell toxicity” value is recorded as 2%. Moreover, the IC50 was 0.8 µM in data set [2] (setting [8]); 0.8 µM in data set [2] (setting [10]); 0.8 µM in data set [2] (Table 3, read-out: LPS IC50 (uM) (Suppl. Table 7)); 0.002 µM in data set [2] (Table 7, read-out: LPS_IC50); 0.8 µM in data set [2] (setting [11]); 0.04 µM in data set [3] (setting [12]). In addition, the IC50 was 0.04 µM in data set [3] (Table 3, read-out: Fibrin IC50 (uM) (Suppl. Table 7)); 0.002 µM in data set [3] (Table 7, read-out: fib_IC50); 0.04 µM in data set [3] (setting [13]); 0.04 µM in data set [3] (setting [14]); above 20 µM in data set [6]; above 20 µM in data set [7]. The inhibition at 10 µM in data set [2] (setting [9]) is 100%; in data set [3] (setting [15]) it was 110%; in data set [5] (Microglia, Table 3, read-out: Cherry-picked Hit (Suppl. Table 7)), above 50%; in data set [5] (setting [17]) it was above 50%. For the same compound, the “Fibrin Selectivity” value in data set [3] is recorded as 17. Further, the “Fibrin Selectivity (LOG10)” value in data set [3] was found to be 1.23. The “LPS % cell toxicity” value in data set [4] is given as 5%. Besides, the “Quadrant (FIG. 5b)” value in data set [5] (setting [16]) is recorded as “Q2”; in data set [5] (Table 1, screen at 10 μM), “Q2”; in data set [5] (Table 2, screen at 10 μM), “Q2”; in data set [5] (Table 3, screen at 10 μM) it was “Q2”; in data set [5] (setting [19]), “Q2”. Further, in data set [5] (Table 7, fib = fibrin, LPS, tox = toxicity), the Activity entry is recorded as “fib/LPS”.
For the compound `C=C(CC)C(=O)c1ccc(OCC(=O)O)c(Cl)c1Cl` [Ethacrynic acid, reference compound], the “Fibrin % cell toxicity” value in data set [1] amounted to 2%. Moreover, the IC50 in data set [2] (setting [8]), in data set [2] (setting [10]), in data set [2] (setting [11]), in data set [3] (setting [12]), in data set [3] (setting [13]) and in data set [3] (setting [14]) was above 20 µM in each case. For the same compound, the IC50 in data set [6] and in data set [7] (cFib assay) was above 20 µM each time. Further, the inhibition at 10 µM is 17% in data set [2] (setting [9]), 57% in data set [3] (setting [15]), above 50% in data set [5] (setting [17]) and above 50% in data set [5] (setting [18]). The “LPS % cell toxicity” value in data set [4] was determined as 1%. Besides, the “Quadrant (FIG. 5b)” value is “Q3” in data set [5] (setting [16]); “Q3” in data set [5] (Table 1, screen at 10 μM); “Q3” in data set [5] (setting [19]).
Take `CO[C@H]1C[C@@H]2CC[C@@H](C)[C@@](O)(O2)C(=O)C(=O)N2CCCC[C@H]2C(=O)O[C@H]([C@H](C)C[C@@H]2CC[C@@H](O)[C@H](OC)C2)CC(=O)[C@H](C)/C=C(\C)[C@@H](O)[C@@H](OC)C(=O)[C@H](C)C[C@H](C)/C=C/C=C/C=C/1C` [Rapamycin, reference compound]: in data set [1], the “Fibrin % cell toxicity” value turned out to be 3%. For the same compound, the IC50 in data set [2] (setting [8]), in data set [2] (setting [10]), in data set [2] (setting [11]), in data set [3] (setting [12]), in data set [3] (setting [13]) and in data set [3] (setting [14]) was below 0.001 µM each time. In addition, the IC50 in data set [6] and in data set [7] (cFib assay) was above 20 µM each time. For the same compound, the inhibition at 10 µM is 53% in data set [2] (setting [9]), 86% in data set [3] (setting [15]), above 50% in data set [5] (setting [17]) and above 50% in data set [5] (setting [18]). The “LPS % cell toxicity” value in data set [4] was found to be 2%. Moreover, the “Quadrant (FIG. 5b)” value in data set [5] (setting [16]) was “Q2”; in data set [5] (Table 1, screen at 10 μM), “Q2”; in data set [5] (setting [19]), “Q2”.
As for `C#CCN[C@@H]1CCc2ccccc21` [Rasagiline, reference compound], the “Fibrin % cell toxicity” value in data set [1] was found to be 1%. In addition, the inhibition at 10 µM in data set [2] (48 h) is 28%; in data set [3], 76%; in data set [5] (setting [22]), above 50%; in data set [5] (Microglia, read-out: Hit) it was above 50%. The IC50 was above 20 µM in data set [2] (48 h, read-out: LPS IC50); above 20 µM in data set [2] (read-out: LPS IC50 (uM)); above 20 µM in data set [2] (setting [20]); 20 µM in data set [3] (48 h, read-out: Fibrin IC50); 20 µM in data set [3] (read-out: Fibrin IC50 (uM)); 20 µM in data set [3] (setting [21]). The IC50 in data set [6] and in data set [7] was above 20 µM throughout. Moreover, the “LPS % cell toxicity” value in data set [4] is recorded as 1%. Further, the “Quadrant (FIG. 5b)” value in data set [5] is given as “Q3”.
